The text below walks through data of the NIST ThermoML archive (doi:10.1016/j.jct.2017.04.009).

The structures appear in SMILES notation.

The data set can be described thus: xn = mol fraction of the nth substance listed. To be noted: Liquid, pressure decay method, x1 = 0.

With `CCF` [fluoroethane] + CCCCCCn1cc[n+](C)c1.F[B-](F)(F)F, the binary diffusion coefficient runs as follows: (303.2 K, 101 kPa) 1.23e-10 m2/s; (313.2 K, 97.7 kPa) 1.91e-10 m2/s; (323.2 K, 104.5 kPa) 2.54e-10 m2/s; (333.2 K, 102.4 kPa) 3.36e-10 m2/s; (343.2 K, 101.6 kPa) 4.2e-10 m2/s.
On to `FC(F)C(F)(F)F` [pentafluoroethane] + CCCCCC[n+]1ccn(C)c1.O=S(=O)([N-]S(=O)(=O)C(F)(F)F)C(F)(F)F, for which the binary diffusion coefficient runs as follows: (303.2 K, 93.2 kPa) 1.02e-10 m2/s; (313.2 K, 94.5 kPa) 1.48e-10 m2/s; (323.2 K, 95.6 kPa) 2.24e-10 m2/s; (333.2 K, 95.7 kPa) 3.13e-10 m2/s; (343.2 K, 100.2 kPa) 4.21e-10 m2/s.
For `FC(F)C(F)(F)F` [pentafluoroethane] + CCCCCCn1cc[n+](C)c1.F[B-](F)(F)F, the binary diffusion coefficient reads like this: (303.2 K, 151.8 kPa) 6.3e-11 m2/s; (313.2 K, 164 kPa) 1.24e-10 m2/s; (323.2 K, 169.7 kPa) 2.16e-10 m2/s; (333.2 K, 176.2 kPa) 2.95e-10 m2/s; (343.2 K, 172.3 kPa) 3.66e-10 m2/s.
